Tests used:
[1] = tested on: Sporothrix schenkii B62482; test: Antifungal activity in vitro (resazurin susceptibility screen), Inf. A; format: cell-based; conditions: Sporothrix, B62482, Sporothrix schenkii B62482; 27 °C, 4 days, resa time 24 hours; highest in-test concentration 64 μM; read-out: Inf. A pIC50 (converted)
Method: (§1) The standard susceptibility screen was performed in 96-well plates (U-bottom, Greiner Bio-One). […] These serial dilutions (10 n1) were then spotted onto test-plates that could be stored in the dark at 4° C. for a maximum period of 2 weeks. […] The different fungal species/isolates (Table 3a) were cryopreserved and 1/1000 diluted in medium just prior to use. A standard inoculum of 200 μl containing 10^3 colony-forming unit (cfu) was then added to each well. A positive control (100% growth=fungal culture without antifungal) and a negative control (0% growth ═RPMI-MOPS medium) were included on each plate. […] [table]

[2] = tested on: Microsporum canis B68128; test: Antifungal activity in vitro (resazurin susceptibility screen), Inf. B; format: cell-based; conditions: Microsporum canis, B68128, Microsporum canis B68128; 27 °C, 9 days, resa time 24 hours; read-out: Inf. B pIC50 (converted)
Method: (§2) The standard susceptibility screen was performed in 96-well plates (U-bottom, Greiner Bio-One). […] These serial dilutions (10 n1) were then spotted onto test-plates that could be stored in the dark at 4° C. for a maximum period of 2 weeks. […] A standard inoculum of 200 μl containing 10^3 colony-forming unit (cfu) was then added to each well. A positive control (100% growth=fungal culture without antifungal) and a negative control (0% growth ═RPMI-MOPS medium) were included on each plate.

[3] = tested on: Trichophyton rubrum B68183; test: Antifungal activity in vitro (resazurin susceptibility screen), Inf. C; format: cell-based; conditions: Trichophyton rubrum B68183; 27 °C, 7 days, resa time 24 hours; read-out: Inf. C pIC50 (converted)
Method: as §1

[4] = tested on: Candida parapsilosis B66126; test: Antifungal activity in vitro (resazurin susceptibility screen), Inf. D; format: cell-based; conditions: Lodderomyces parapsilosis; Candida parapsilosis B66126; 37 °C, 24 hours, resa time 4 hours; read-out: Inf. D pIC50 (converted)
Method: as §2

[5] = tested on: Aspergillus fumigatus B42928; test: Antifungal activity in vitro (resazurin susceptibility screen), Inf. E; format: cell-based; conditions: Aspergillus fumigatus B42928; 27 °C, 48 hours, resa time 17 hours; read-out: Inf. E pIC50 (converted)
Method: as §1

[6] = tested on: Cryptococcus neoformans B66663; test: Antifungal activity in vitro (resazurin susceptibility screen), Inf. F; format: cell-based; conditions: Cryptococcus neoformans, B66663, Cryptococcus neoformans B66663; 37 °C, 24 hours, resa time 4 hours; read-out: Inf. F pIC50 (converted)
Method: as §1

[7] = tested on: Trichophyton mentagrophytes B70554; test: Antifungal activity in vitro (resazurin susceptibility screen), Inf. G; format: cell-based; conditions: Trichophyton mentagrophytes, B70554, Trichophyton mentagrophytes B70554; 27 °C, 7 days, resa time 24 hours; read-out: Inf. G pIC50 (converted)
Method: as §2

[8] = Liver metabolic stability assay, hLM; format: in vitro ADME, human; conditions: human liver microsomes, 1 mg protein/ml, 5 μM test compound, 15 min, 37 °C
Method: Liver preparations (microsomal fractions) were obtained from BD Gentest (San Jose, Calif., US). Metabolic stability was assessed using the following assay conditions. […] The mixture was pre-incubated at 37° C. for 5 min and the enzymatic reaction was started by addition of 5 μM test compound. After 0 (control) and 15 minutes (min), the reactions were terminated by addition of […] (500 μl). The precipitated material was removed by centrifugation at 1200 g for 10 min. The supernatant was analysed by LC-MS/MS on a ThermoFinnigan LCQ Deca XP ion-trap mass spectrometer equipped with an atmospheric pressure chemical ionisation source. Calculation of %-compound remaining was as described by Kantharaj et al. 2003 ((Kantharaj E., Tuytelaars A, Proost P E A, Ongel Z, van […] (2003). Simultaneous measurement of drug metabolic stability and identification of metabolites using ion-trap mass spectrometry.

[9] = molecular target: CYP3A4 (Homo sapiens, UniProt P08684); test: Cytochrome P450 inhibition, Protocol A, cDNA expressed proteins, fluorogenic substrates; format: in vitro ADME; conditions: % inhibition at 10 μM, cDNA expressed protein; for hCYP3A4_BFC_Pct_Inh: substrate BFC; for hCYP3A4_BQ_Pct_Inh: substrate BQ; for hCYP3A4_DBF_Pct_Inh: substrate DBF
Method: (§3) All fluorogenic based assays were performed in Black Costar 96-well plates according to Crespi et al 1997 with minor modifications (Crespi C L, Miller V P & Penman B W (1997). Microtiter plate assays for inhibition of human, drug-metabolizing cytochromes P450. Anal. Biochem. Vol 248, 1898-1900). Assay conditions are outlined in Table 5a. For cytochrome P450 3A4, three different fluorogenic substrates were used. Each reaction mixture consisted of the appropriate concentration of enzyme, NADPH-generating system (“NADPH” means β-nicotinamide adenine dinucleotide phosphate, reduced), substrate in sodium/potassium buffer (pH 7.4). For each cytochrome P450 batch Michealis-Menten kinetics were determined using 11 concentrations.
(§4) Thereafter, further dilutions were made in acetonitrile. […] The compounds were serially diluted to give final concentrations ranging from 1 nM to 10 μM. The reaction mixtures, whereby 1 μL of buffer was replaced by compound solution, were pre-warmed for 5 min at 37° C. and the reaction was initiated by the addition of β-nicotinamide adenine dinucleotide phosphate (NADP+). Reactions were terminated by addition of stopping reagent and the fluorescence was measured using a Fluoroscan (Labsystems, Brussel, Belgium).
(§5) In Table 5a, the following abbreviations were used: 3-cyano-7-ethocycoumarin (CEC), 7-methoxy-4-trifluoromethylcoumarin (MFC), 3-[2-(N,N-diethyl-N-methylamino)ethyl]-7-methoxy-4-methylcoumarin (AMMC), 7-benzyloxy-trifluoromethyl coumarin (BFC), 7-benzyloxyquinoline (BQ) and dibenzyl fluorescein (DBF).

[10] = molecular target: T1, CYP1A2 (Homo sapiens, UniProt P05177); test: Cytochrome P450 inhibition, Protocol A, cDNA expressed proteins, fluorogenic substrate; format: in vitro ADME; conditions: % inhibition at 10 μM; substrate CEC; cDNA expressed protein
T1 sequence (P05177 1-516): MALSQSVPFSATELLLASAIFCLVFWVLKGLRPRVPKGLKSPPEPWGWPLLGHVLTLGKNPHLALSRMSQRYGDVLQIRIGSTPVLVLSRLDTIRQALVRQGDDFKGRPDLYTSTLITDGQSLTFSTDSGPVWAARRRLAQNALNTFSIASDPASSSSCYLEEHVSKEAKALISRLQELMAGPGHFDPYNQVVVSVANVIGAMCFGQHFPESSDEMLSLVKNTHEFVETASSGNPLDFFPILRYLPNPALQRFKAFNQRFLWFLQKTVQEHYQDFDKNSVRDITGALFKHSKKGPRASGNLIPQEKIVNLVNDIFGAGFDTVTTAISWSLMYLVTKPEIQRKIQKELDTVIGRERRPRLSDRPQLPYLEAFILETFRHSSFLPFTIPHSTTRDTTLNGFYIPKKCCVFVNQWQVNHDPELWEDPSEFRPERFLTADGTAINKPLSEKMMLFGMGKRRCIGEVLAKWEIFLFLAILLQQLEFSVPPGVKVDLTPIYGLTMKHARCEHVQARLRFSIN
Method: as §3, §4, §5

[11] = molecular target: CYP2C9 (Homo sapiens, UniProt P11712); test: as above; format: in vitro ADME; conditions: % inhibition at 10 μM; substrate MFC; cDNA expressed protein
Method: as §3, §4, §5

[12] = molecular target: CYP2D6 (Homo sapiens, UniProt P10635); test: as above; format: in vitro ADME; conditions: % inhibition at 10 μM; substrate AMMC; cDNA expressed protein
Method: as §3, §4, §5

Chain of CYP3A4 (P08684 whole entry): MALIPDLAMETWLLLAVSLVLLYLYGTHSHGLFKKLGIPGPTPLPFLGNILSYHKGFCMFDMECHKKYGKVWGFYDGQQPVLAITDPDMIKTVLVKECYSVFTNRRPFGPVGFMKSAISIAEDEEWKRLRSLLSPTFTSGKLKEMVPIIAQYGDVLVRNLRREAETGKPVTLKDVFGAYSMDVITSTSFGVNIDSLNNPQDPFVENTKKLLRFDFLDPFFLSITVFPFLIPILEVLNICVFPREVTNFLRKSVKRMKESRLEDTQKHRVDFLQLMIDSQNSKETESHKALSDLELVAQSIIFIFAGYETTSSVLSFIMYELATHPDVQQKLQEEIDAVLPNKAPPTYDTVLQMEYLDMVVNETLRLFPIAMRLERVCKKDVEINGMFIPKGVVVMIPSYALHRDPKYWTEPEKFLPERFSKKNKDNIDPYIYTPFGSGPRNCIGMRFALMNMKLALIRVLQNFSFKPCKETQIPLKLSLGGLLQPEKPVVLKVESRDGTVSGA
Chain of CYP2C9 (P11712 whole entry): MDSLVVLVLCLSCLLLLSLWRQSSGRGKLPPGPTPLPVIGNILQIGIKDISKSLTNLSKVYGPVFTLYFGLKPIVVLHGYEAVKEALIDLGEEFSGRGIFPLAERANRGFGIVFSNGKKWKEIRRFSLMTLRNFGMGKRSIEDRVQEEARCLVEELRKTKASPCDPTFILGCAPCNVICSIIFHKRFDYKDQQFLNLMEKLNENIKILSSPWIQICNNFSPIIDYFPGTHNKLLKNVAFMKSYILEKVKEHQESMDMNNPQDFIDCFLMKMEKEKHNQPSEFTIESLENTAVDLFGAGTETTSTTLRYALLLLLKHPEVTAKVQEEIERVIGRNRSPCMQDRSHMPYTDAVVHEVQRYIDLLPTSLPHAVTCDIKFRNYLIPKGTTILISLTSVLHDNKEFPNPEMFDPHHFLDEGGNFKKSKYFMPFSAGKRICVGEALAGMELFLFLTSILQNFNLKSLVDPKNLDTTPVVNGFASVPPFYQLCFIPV
Chain of CYP2D6 (P10635 whole entry): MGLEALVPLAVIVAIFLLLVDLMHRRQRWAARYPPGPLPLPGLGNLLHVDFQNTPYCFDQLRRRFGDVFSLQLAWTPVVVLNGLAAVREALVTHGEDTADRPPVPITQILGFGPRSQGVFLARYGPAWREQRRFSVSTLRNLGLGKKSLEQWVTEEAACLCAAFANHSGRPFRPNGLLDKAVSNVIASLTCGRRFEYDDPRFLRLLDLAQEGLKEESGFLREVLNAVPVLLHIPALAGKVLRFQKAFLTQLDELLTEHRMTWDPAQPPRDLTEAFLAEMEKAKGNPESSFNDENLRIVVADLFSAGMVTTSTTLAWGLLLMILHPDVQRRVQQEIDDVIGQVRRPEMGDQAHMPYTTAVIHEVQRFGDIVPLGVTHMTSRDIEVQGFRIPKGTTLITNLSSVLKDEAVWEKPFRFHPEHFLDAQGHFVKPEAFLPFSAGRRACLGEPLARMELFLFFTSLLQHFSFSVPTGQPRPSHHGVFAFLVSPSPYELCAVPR

| Structure (SMILES) | IC50 [1] [µM] | IC50 [2] [µM] | IC50 [3] [µM] | IC50 [4] [µM] | IC50 [5] [µM] | IC50 [6] [µM] | IC50 [7] [µM] | %-compound metabolised_Met_hLM [8] [%] | hCYP3A4_BFC_Pct_Inh [9] [%] | hCYP3A4_BQ_Pct_Inh [9] [%] | hCYP3A4_DBF_Pct_Inh [9] [%] | hCYP1A2_CEC_Pct_Inh [10] [%] | hCYP2C9_MFC_Pct_Inh [11] [%] | hCYP2D6_AMMC_Pct_Inh [12] [%] | melting point [°C] |
| --- | --- | --- | --- | --- | --- | --- | --- | --- | --- | --- | --- | --- | --- | --- | --- |
| CC(=O)c1ccc(C2=NCc3c(Cl)ccc(Cl)c3-n3cccc32)cc1 [Compound 25, 1-[4-(7,10-dichloro-6H-pyrrolo[1,2-a][1,4]benzodiazepin-4-yl)phenyl]-ethanone] | > 63.1 | 3.16 | 5.01 | > 63.1 | > 63.1 | > 63.1 | 10 | 80 | 21 | 29 | 21 | 21 | 45 | 11 |  |
| CS(=O)(=O)c1ccc(C2=NCc3c(F)cccc3-n3cccc32)cc1 [Compound 29, 7-fluoro-4-[4-(methylsulfonyl)phenyl]-6H-pyrrolo[1,2-a][1,4]benzodiazepine] | > 63.1 | 10 | 2.51 | > 63.1 | 50.1 | 31.6 | 6.31 |  |  |  |  |  |  |  | 92 to 95 |
| CS(=O)(=O)c1cccc(C2=NCc3c(Cl)cc(Cl)cc3-n3cccc32)c1 [Compound 31, 7,9-dichloro-4-[3-(methylsulfonyl)phenyl]-6H-pyrrolo[1,2-a][1,4]benzodiazepine] | > 63.1 | > 63.1 | > 63.1 | > 63.1 | > 63.1 | > 63.1 | > 63.1 |  |  |  |  |  |  |  | 221.2 to 221.5 |
| CC(=O)c1ccc(C2=NCc3ccc(Cl)cc3-n3cccc32)cc1 [drawing 86] |  |  |  |  |  |  |  |  | 7 | 50 | 40 | 21 | 69 | 20 |  |
| CC(=O)c1ccc(C2=NCc3c(Cl)cccc3-n3cccc32)cc1 [drawing 88] |  |  |  |  |  |  |  |  | 2 | 33 | 21 | 33 | 82 | 18 |  |
| CCc1ccc(C2=NCc3c(Cl)cccc3-n3cccc32)cc1 [drawing 89] |  |  |  |  |  |  |  |  | 45 | 62 | 64 | 60 | 41 | 52 |  |
| CS(=O)(=O)c1ccc(C2=NCc3c(Cl)cccc3-n3cccc32)cc1 [drawing 90] |  |  |  |  |  |  |  |  | 5 | 17 | 1 | 5 | 48 | 5 |  |
